Laboratory results taken from PubChem BioAssay AID2060896 (Molecular Pharmacology Branch, DTP, NCI, 2025).

Test system: 941728-121-R-J1-PDC complex spheroid viability
Experiment: Anticancer human tumor 941728-121-R-J1-PDC patient-derived lung adenocarcinoma cell line growth inhibition [RAS]
Settings: for IC50: curve of first compound; for viability, T/C: stronger effect = lower value
Procedure, shortened: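 Multi-cell-type spheroids: tumor cells plus HUVEC endothelial cells and mesenchymal stem cells. RAS-pathway inhibitors were combined with targeted agents, each dosed in half-log steps down from clinical Cmax, or from 10 microM when Cmax was unknown.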

[1] = second compound 0.00316 µM, first compound 0.0316 µM
[2] = second compound 0.00316 µM, first compound 0.1 µM
[3] = second compound 0.00316 µM, first compound 0.316 µM
[4] = second compound 0.00316 µM, first compound 1 µM
[5] = second compound 0.00316 µM, first compound 3.16 µM
[6] = second compound 0.00316 µM, first compound 10 µM
[7] = second compound 0.01 µM, first compound 0.0316 µM
[8] = second compound 0.01 µM, first compound 0.1 µM
[9] = second compound 0.01 µM, first compound 0.316 µM
[10] = second compound 0.01 µM, first compound 1 µM
[11] = second compound 0.01 µM, first compound 3.16 µM
[12] = second compound 0.01 µM, first compound 10 µM
[13] = second compound 0.0316 µM, first compound 0.0316 µM
[14] = second compound 0.0316 µM, first compound 0.1 µM
[15] = second compound 0.0316 µM, first compound 0.316 µM
[16] = second compound 0.0316 µM, first compound 1 µM
[17] = second compound 0.0316 µM, first compound 3.16 µM
[18] = second compound 0.0316 µM, first compound 10 µM
[19] = second compound 0.1 µM, first compound 0.0316 µM
[20] = second compound 0.1 µM, first compound 0.1 µM
[21] = second compound 0.1 µM, first compound 0.316 µM
[22] = second compound 0.1 µM, first compound 1 µM
[23] = second compound 0.1 µM, first compound 3.16 µM
[24] = second compound 0.1 µM, first compound 10 µM
[25] = second compound 0.316 µM, first compound 0.0316 µM
[26] = second compound 0.316 µM, first compound 0.1 µM
[27] = second compound 0.316 µM, first compound 0.316 µM
[28] = second compound 0.316 µM, first compound 1 µM
[29] = second compound 0.316 µM, first compound 3.16 µM
[30] = second compound 0.316 µM, first compound 10 µM
[31] = second compound 1 µM, first compound 0.0316 µM
[32] = second compound 1 µM, first compound 0.1 µM
[33] = second compound 1 µM, first compound 0.316 µM
[34] = second compound 1 µM, first compound 1 µM
[35] = second compound 1 µM, first compound 3.16 µM
[36] = second compound 1 µM, first compound 10 µM
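Note: spheroids exposed to compounds for 7 days before readout.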
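Throughout, for viability, T/C: 100% = DMSO vehicle control viability.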

Q: How did the IC50 (second compound 0.00316 µM) turn out when `CC1(O)CCCC1n1c(=O)c(C(F)F)cc2cnc(NC3CCN(S(C)(=O)=O)CC3)nc21` (stereo unspecified) + C=CC(=O)N1CCN(c2nc(OCC3CCCN3C)nc3c(F)c(-c4nc(N)cc(C)c4C(F)(F)F)c(Cl)cc23)C(C)C1 was run?
A: < 31.6 nM

Q: And the IC50 (second compound 0.01 µM)?
A: < 31.6 nM

Q: And the IC50 (second compound 0.0316 µM)?
A: < 31.6 nM

Q: What about the IC50 (second compound 0.1 µM) of the same molecule?
A: < 31.6 nM

Q: And the IC50 (second compound 0.316 µM)?
A: < 31.6 nM

Q: What about the IC50 (second compound 1 µM) of the same molecule?
A: < 31.6 nM

Q: And the viability, T/C [1]?
A: 21.1%

Q: What about the viability, T/C [2] of the same molecule?
A: 22.3%

Q: What about the viability, T/C [3] of the same molecule?
A: 21.8%

Q: And the viability, T/C [4]?
A: 24.1%

Q: What about the viability, T/C [5] of the same molecule?
A: 21.9%

Q: And the viability, T/C [6]?
A: 23.6%

Q: What about the viability, T/C [7] of the same molecule?
A: 18.8%

Q: And the viability, T/C [8]?
A: 25.2%

Q: And the viability, T/C [9]?
A: 19.6%

Q: And the viability, T/C [10]?
A: 21.8%

Q: What about the viability, T/C [11] of the same molecule?
A: 23%

Q: And the viability, T/C [12]?
A: 26.5%

Q: And the viability, T/C [13]?
A: 18%

Q: What about the viability, T/C [14] of the same molecule?
A: 17.9%

Q: What about the viability, T/C [15] of the same molecule?
A: 21.4%

Q: And the viability, T/C [16]?
A: 19.1%

Q: What about the viability, T/C [17] of the same molecule?
A: 20.3%

Q: What about the viability, T/C [18] of the same molecule?
A: 23.1%

Q: And the viability, T/C [19]?
A: 20.1%

Q: And the viability, T/C [20]?
A: 18.7%

Q: And the viability, T/C [21]?
A: 20.1%

Q: And the viability, T/C [22]?
A: 22.8%

Q: And the viability, T/C [23]?
A: 21.8%

Q: And the viability, T/C [24]?
A: 24.6%

Q: What about the viability, T/C [25] of the same molecule?
A: 21.1%

Q: What about the viability, T/C [26] of the same molecule?
A: 19.9%

Q: What about the viability, T/C [27] of the same molecule?
A: 21.4%

Q: And the viability, T/C [28]?
A: 22.1%

Q: And the viability, T/C [29]?
A: 21.6%

Q: What about the viability, T/C [30] of the same molecule?
A: 28.1%

Q: And the viability, T/C [31]?
A: 21.1%

Q: What about the viability, T/C [32] of the same molecule?
A: 19.7%

Q: And the viability, T/C [33]?
A: 26.4%

Q: And the viability, T/C [34]?
A: 21.9%

Q: And the viability, T/C [35]?
A: 24.1%

Q: And the viability, T/C [36]?
A: 33.4%

Q: Which IC50 (second compound 0.00316 µM) does the source give for `CCN1CCN(Cc2ccc(Nc3ncc(F)c(-c4cc(F)c5nc(C)n(C(C)C)c5c4)n3)nc2)CC1` + C=CC(=O)N1CCN(c2nc(OCC3CCCN3C)nc3c(F)c(-c4nc(N)cc(C)c4C(F)(F)F)c(Cl)cc23)C(C)C1 here?
A: < 3.16 nM

Q: And the IC50 (second compound 0.01 µM)?
A: < 3.16 nM

Q: What about the IC50 (second compound 0.0316 µM) of the same molecule?
A: < 3.16 nM

Q: And the IC50 (second compound 0.1 µM)?
A: < 3.16 nM

Q: And the IC50 (second compound 0.316 µM)?
A: < 3.16 nM

Q: What about the IC50 (second compound 1 µM) of the same molecule?
A: < 3.16 nM

Q: What about the viability, T/C (second compound 0.00316 µM, first compound 0.00316 µM) of the same molecule?
A: 21.3%

Q: And the viability, T/C (second compound 0.00316 µM, first compound 0.01 µM)?
A: 18.4%

Q: And the viability, T/C [1]?
A: 18.1%

Q: And the viability, T/C [2]?
A: 20.8%

Q: What about the viability, T/C [3] of the same molecule?
A: 15.6%

Q: What about the viability, T/C [4] of the same molecule?
A: 15.6%

Q: What about the viability, T/C (second compound 0.01 µM, first compound 0.00316 µM) of the same molecule?
A: 20.1%

Q: And the viability, T/C (second compound 0.01 µM, first compound 0.01 µM)?
A: 18.5%

Q: And the viability, T/C [7]?
A: 17.5%

Q: And the viability, T/C [8]?
A: 15.9%

Q: What about the viability, T/C [9] of the same molecule?
A: 13.1%

Q: And the viability, T/C [10]?
A: 12.6%

Q: What about the viability, T/C (second compound 0.0316 µM, first compound 0.00316 µM) of the same molecule?
A: 18.4%

Q: And the viability, T/C (second compound 0.0316 µM, first compound 0.01 µM)?
A: 20.1%

Q: And the viability, T/C [13]?
A: 14.6%

Q: And the viability, T/C [14]?
A: 13.5%

Q: What about the viability, T/C [15] of the same molecule?
A: 13.8%

Q: What about the viability, T/C [16] of the same molecule?
A: 15.1%

Q: What about the viability, T/C (second compound 0.1 µM, first compound 0.00316 µM) of the same molecule?
A: 18.8%

Q: What about the viability, T/C (second compound 0.1 µM, first compound 0.01 µM) of the same molecule?
A: 19%

Q: And the viability, T/C [19]?
A: 18.6%

Q: And the viability, T/C [20]?
A: 15.8%

Q: And the viability, T/C [21]?
A: 14.4%

Q: And the viability, T/C [22]?
A: 13.5%

Q: What about the viability, T/C (second compound 0.316 µM, first compound 0.00316 µM) of the same molecule?
A: 18%

Q: What about the viability, T/C (second compound 0.316 µM, first compound 0.01 µM) of the same molecule?
A: 17.4%

Q: And the viability, T/C [25]?
A: 18.5%

Q: And the viability, T/C [26]?
A: 17.3%

Q: And the viability, T/C [27]?
A: 13.2%

Q: What about the viability, T/C [28] of the same molecule?
A: 13.9%

Q: And the viability, T/C (second compound 1 µM, first compound 0.00316 µM)?
A: 21.6%

Q: What about the viability, T/C (second compound 1 µM, first compound 0.01 µM) of the same molecule?
A: 18.8%

Q: And the viability, T/C [31]?
A: 20.6%

Q: And the viability, T/C [32]?
A: 16.5%

Q: And the viability, T/C [33]?
A: 14.7%

Q: What about the viability, T/C [34] of the same molecule?
A: 13.2%

Q: Which IC50 (second compound 0.00316 µM) does the source give for `C[C@@H](NC(=O)c1ncnc(N)c1Cl)c1ncc(C(=O)Nc2cc(C(F)(F)F)c(Cl)cn2)s1` + C=CC(=O)N1CCN(c2nc(OCC3CCCN3C)nc3c(F)c(-c4nc(N)cc(C)c4C(F)(F)F)c(Cl)cc23)C(C)C1 here?
A: < 31.6 nM

Q: What about the IC50 (second compound 0.01 µM) of the same molecule?
A: < 31.6 nM

Q: And the IC50 (second compound 0.0316 µM)?
A: < 31.6 nM

Q: And the IC50 (second compound 0.1 µM)?
A: < 31.6 nM

Q: And the IC50 (second compound 0.316 µM)?
A: < 31.6 nM

Q: What about the IC50 (second compound 1 µM) of the same molecule?
A: < 31.6 nM

Q: What about the viability, T/C [1] of the same molecule?
A: 21.6%

Q: And the viability, T/C [2]?
A: 21%

Q: What about the viability, T/C [3] of the same molecule?
A: 21.2%

Q: And the viability, T/C [4]?
A: 25.4%

Q: What about the viability, T/C [5] of the same molecule?
A: 23.1%

Q: And the viability, T/C [6]?
A: 20.7%

Q: What about the viability, T/C [7] of the same molecule?
A: 26.2%

Q: And the viability, T/C [8]?
A: 23.9%

Q: What about the viability, T/C [9] of the same molecule?
A: 23.3%

Q: What about the viability, T/C [10] of the same molecule?
A: 27.1%

Q: What about the viability, T/C [11] of the same molecule?
A: 20.5%

Q: What about the viability, T/C [12] of the same molecule?
A: 20.2%

Q: And the viability, T/C [13]?
A: 22.3%

Q: What about the viability, T/C [14] of the same molecule?
A: 22%

Q: And the viability, T/C [15]?
A: 20.9%

Q: And the viability, T/C [16]?
A: 22%

Q: What about the viability, T/C [17] of the same molecule?
A: 23.5%

Q: What about the viability, T/C [18] of the same molecule?
A: 20.4%

Q: And the viability, T/C [19]?
A: 26.8%

Q: What about the viability, T/C [20] of the same molecule?
A: 24.9%

Q: What about the viability, T/C [21] of the same molecule?
A: 22.5%

Q: What about the viability, T/C [22] of the same molecule?
A: 23.1%

Q: What about the viability, T/C [23] of the same molecule?
A: 21.9%

Q: What about the viability, T/C [24] of the same molecule?
A: 20.9%

Q: What about the viability, T/C [25] of the same molecule?
A: 20.1%

Q: And the viability, T/C [26]?
A: 20.9%

Q: What about the viability, T/C [27] of the same molecule?
A: 21%

Q: And the viability, T/C [28]?
A: 21.6%

Q: And the viability, T/C [29]?
A: 24.9%

Q: And the viability, T/C [30]?
A: 22.2%

Q: And the viability, T/C [31]?
A: 23.4%

Q: And the viability, T/C [32]?
A: 30.2%

Q: What about the viability, T/C [33] of the same molecule?
A: 22.1%

Q: And the viability, T/C [34]?
A: 22.5%

Q: And the viability, T/C [35]?
A: 27.3%

Q: And the viability, T/C [36]?
A: 22.4%
